Laboratory results: ChEMBL document CHEMBL5725383, “Ethynyl derivatives” (2017)

Target: Metabotropic glutamate receptor 4 (Homo sapiens, UniProt Q14833)
Experiment: Ca2+ Mobilization In Vitro Assay: About 24 hrs before an experiment, 5×10^4 cells/well were seeded in poly-D-lysine coated, black/clear-bottomed 96-well plates. The cells were loaded with 2.5 μM Fluo-4AM in loading buffer (1×HBSS, 20 mM HEPES) for 1 hr at 37° C. and washed five times with loading buffer. The cells were transferred into a Functional Drug Screening System 7000 (Hamamatsu, Paris, France), and 11 half logarithmic serial dilutions of test compound at 37° C. were added and the cells were incubated for 10-30 min. with on-line recording of fluorescence. Following this pre-incubation step, the agonist (2S)-2-amino-4-phosphonobutanoic acid (L-AP4) was added to the cells at a concentration corresponding to EC20 with on-line recording of fluorescence; in order to account for day-to-day variations in the responsiveness of cells, the EC20 of L-AP4 was determined immediately ahead of each experiment by recording of a full dose-response curve of L-AP4. Responses were measured as peak increase in fluorescence minus basal (i.e. fluorescence without addition of L-AP4), normalized to the maximal stimulatory effect obtained with saturating concentrations of L-AP4. Graphs were plotted with the % maximal stimulatory using XLfit, a curve fitting program that iteratively plots the data using Levenburg Marquardt algorithm. […]

Chain of Metabotropic glutamate receptor 4 (Q14833 whole entry): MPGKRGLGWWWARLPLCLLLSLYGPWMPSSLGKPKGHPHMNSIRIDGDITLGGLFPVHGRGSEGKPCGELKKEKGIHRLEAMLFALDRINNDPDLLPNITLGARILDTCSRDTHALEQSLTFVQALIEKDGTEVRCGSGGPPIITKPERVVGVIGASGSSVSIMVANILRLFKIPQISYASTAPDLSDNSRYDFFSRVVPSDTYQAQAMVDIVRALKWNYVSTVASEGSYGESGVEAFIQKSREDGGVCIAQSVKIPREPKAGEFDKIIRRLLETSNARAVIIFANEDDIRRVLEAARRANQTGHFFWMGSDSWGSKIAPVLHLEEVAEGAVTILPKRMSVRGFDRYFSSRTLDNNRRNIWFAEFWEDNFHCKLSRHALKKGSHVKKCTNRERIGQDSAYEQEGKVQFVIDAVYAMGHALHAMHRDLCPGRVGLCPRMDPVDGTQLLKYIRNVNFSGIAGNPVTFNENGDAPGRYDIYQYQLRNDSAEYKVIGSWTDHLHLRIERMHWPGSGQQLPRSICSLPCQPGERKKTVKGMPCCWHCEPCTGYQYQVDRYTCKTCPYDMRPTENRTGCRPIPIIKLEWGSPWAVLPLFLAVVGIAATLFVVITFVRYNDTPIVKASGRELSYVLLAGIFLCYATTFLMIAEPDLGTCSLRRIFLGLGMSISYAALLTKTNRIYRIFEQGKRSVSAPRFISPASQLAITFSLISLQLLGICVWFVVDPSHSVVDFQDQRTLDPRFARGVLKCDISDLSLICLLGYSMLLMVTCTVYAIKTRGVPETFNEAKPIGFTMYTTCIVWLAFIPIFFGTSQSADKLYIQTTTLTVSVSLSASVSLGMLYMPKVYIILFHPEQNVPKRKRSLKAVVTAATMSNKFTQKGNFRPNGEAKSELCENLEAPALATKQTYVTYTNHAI

O=c1[nH]c2ncsc2c(=O)n1-c1c(F)cc(C#Cc2ccccc2)cc1F showed an EC50 of 187 nM.
